Measured values reported in ChEMBL document CHEMBL1201862, “PubChem BioAssay data set” (2004).
Activity calls are given as the source filed them.

Experiments:
Aminopeptidase N = molecular target: T1, Aminopeptidase N (Plasmodium falciparum FcB1/Columbia, UniProt O96935); assay: P. falciparum M1AAP inhibitors, biochemical, fluorogenic H-Leu-NHMec substrate, 1536-well (AID 1445); design: species or system Plasmodium falciparum 3D7, 3D7
T1 sequence (O96935 whole entry): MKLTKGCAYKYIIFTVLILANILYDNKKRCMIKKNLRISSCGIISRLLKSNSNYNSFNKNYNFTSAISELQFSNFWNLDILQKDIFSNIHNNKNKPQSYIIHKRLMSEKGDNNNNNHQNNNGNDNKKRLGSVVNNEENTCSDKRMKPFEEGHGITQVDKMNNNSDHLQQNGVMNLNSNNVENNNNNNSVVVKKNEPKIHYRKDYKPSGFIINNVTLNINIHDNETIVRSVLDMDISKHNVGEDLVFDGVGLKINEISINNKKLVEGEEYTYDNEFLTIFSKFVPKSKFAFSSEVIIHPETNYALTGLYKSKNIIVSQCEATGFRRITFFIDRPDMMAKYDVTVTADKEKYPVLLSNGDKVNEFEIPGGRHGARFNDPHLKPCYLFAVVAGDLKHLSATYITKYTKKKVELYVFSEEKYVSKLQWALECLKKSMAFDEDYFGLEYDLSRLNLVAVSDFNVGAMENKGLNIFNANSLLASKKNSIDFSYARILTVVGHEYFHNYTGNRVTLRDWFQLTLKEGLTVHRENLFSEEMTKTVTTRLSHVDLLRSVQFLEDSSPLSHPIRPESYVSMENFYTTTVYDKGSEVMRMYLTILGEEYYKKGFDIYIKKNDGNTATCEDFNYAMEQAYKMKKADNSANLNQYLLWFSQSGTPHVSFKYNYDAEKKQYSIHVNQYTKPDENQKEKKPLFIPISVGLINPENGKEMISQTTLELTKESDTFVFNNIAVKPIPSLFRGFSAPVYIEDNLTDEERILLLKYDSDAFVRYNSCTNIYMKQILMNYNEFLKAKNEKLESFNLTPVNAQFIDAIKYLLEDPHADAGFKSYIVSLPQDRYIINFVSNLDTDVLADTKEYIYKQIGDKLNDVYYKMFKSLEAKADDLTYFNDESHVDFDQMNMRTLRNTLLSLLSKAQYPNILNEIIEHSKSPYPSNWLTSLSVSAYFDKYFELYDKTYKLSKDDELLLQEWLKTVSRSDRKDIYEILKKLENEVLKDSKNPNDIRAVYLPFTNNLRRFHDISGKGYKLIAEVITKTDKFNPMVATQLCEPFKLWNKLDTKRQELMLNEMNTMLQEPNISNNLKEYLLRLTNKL

cells = format: functional
[1] = Vero E6 cell cytotoxicity, dose response, cytotoxicity control for non-replicating M. tuberculosis project, secondary assay (AID 492998); format: functional, VeroE6; conditions: Vero C1008
[2] = THP-1 cell cytotoxicity, dose response, cytotoxicity control for non-replicating M. tuberculosis project (AID 489025); format: functional
Nonstructural protein 1 = Nonstructural protein 1 (Influenza A virus, UniProt Q194T2); format: functional, Influenza A virus (A/California/07/2009(H1N1))
Protein RecA = molecular target: T2, Protein RecA (Mycobacterium tuberculosis, UniProt P9WHJ3); assay: Fluorescence Cell-Free Homogeneous Dose Retest to Identify Inhibitors of RecA-Intein Splicing Activity. [Related pubchem assays (depositor defined):AID2097, AID2223, AID489010, AID492950]; format: functional
T2 sequence (P9WHJ3 whole entry): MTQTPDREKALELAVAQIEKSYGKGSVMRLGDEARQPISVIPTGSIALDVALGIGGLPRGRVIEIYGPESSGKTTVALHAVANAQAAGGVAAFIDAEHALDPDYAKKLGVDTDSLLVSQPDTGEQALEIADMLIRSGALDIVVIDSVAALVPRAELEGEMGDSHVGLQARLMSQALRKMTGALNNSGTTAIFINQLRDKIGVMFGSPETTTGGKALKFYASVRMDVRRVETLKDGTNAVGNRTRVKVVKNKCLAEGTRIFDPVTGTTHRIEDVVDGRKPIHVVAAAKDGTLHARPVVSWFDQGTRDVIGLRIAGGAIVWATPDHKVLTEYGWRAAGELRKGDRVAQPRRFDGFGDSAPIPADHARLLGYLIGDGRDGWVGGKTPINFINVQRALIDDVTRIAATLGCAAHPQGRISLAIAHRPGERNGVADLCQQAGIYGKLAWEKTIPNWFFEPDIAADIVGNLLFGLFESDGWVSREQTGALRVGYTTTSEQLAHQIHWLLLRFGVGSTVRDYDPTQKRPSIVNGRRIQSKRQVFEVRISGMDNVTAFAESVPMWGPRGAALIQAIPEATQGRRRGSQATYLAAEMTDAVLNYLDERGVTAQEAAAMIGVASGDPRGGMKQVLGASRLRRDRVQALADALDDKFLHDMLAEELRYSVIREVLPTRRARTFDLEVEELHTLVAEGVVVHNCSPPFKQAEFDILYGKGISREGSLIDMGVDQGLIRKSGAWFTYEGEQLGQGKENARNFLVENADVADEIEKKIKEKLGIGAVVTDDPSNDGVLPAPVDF

Genome polyprotein = Genome polyprotein (dengue virus type 2, UniProt P29990); assay: Dengue-2 NS5 methyltransferase inhibitors, primary screen, biochemical, confirmation dose response (AID 588689); format: functional
[3] = molecular target: T3, Replicative DNA helicase DnaB (Mycobacterium tuberculosis, UniProt P9WMR3); assay: DnaB intein splicing inhibitors, dose response, biochemical, cell-free fluorescence (AID 449749); format: functional
T3 sequence (P9WMR3 whole entry): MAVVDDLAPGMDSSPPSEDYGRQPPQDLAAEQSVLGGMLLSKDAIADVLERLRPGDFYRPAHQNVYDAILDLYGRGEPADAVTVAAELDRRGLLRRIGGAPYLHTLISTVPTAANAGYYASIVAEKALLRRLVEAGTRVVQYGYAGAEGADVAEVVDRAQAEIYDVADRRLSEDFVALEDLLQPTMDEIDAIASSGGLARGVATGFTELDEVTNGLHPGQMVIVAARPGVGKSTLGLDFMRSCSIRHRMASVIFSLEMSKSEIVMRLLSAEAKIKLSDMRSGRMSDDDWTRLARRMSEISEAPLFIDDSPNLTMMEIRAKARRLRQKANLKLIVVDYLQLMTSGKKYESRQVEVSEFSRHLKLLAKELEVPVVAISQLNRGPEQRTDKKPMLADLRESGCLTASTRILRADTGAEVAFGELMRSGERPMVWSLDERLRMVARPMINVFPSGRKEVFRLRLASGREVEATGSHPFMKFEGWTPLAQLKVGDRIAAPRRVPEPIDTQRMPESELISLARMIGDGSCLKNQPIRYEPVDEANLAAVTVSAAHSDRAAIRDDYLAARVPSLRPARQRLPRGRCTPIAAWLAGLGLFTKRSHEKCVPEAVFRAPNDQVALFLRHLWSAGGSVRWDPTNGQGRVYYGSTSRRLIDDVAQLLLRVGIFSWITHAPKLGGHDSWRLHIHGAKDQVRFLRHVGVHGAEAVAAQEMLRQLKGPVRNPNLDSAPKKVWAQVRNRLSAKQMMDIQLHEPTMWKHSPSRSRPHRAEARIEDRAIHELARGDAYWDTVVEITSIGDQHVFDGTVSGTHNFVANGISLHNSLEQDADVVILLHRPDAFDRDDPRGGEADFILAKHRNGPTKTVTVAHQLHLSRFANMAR

[4] = cytotoxicity toward NIH3T3 fibroblasts, dose response, counter-screen, cell-based, ATP luminescence, mouse fibroblasts (AID 2010); format: functional;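 also: cells exposed to compound for about 90 hours before reading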
[5] = inhibitors of intracellular T. cruzi replication, confirmation, NIH3T3 host cells, beta-gal luminescence (AID 2044); format: functional, cell-based;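 also: intracellular parasites grown in NIH/3T3 mouse fibroblasts as host cells; luminescent beta-galactosidase reporter signal from transgenic T. cruzi replicating inside host cells; inhibitors lower the luminescence signal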
[6] = molecular target: T4, Ubiquitin-conjugating enzyme E2 N (Homo sapiens, UniProt P61088); format: functional;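 also: Dose-response confirmation in a TR-FRET assay detecting UBC13-driven polyubiquitin chain formation, inhibition measured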
T4 sequence (P61088 whole entry): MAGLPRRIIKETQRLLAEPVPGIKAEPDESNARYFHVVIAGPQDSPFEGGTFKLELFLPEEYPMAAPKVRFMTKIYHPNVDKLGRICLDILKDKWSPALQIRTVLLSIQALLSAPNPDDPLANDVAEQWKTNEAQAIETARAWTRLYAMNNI

Chain of Nonstructural protein 1 (Q194T2 whole entry): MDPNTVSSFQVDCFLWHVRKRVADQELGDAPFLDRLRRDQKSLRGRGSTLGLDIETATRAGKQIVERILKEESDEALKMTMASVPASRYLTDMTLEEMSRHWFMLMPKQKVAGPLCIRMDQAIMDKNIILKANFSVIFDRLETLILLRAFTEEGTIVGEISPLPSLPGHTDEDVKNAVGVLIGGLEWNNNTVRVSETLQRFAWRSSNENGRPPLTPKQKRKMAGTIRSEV
Chain of Genome polyprotein (P29990 2492-3391 limits assumed): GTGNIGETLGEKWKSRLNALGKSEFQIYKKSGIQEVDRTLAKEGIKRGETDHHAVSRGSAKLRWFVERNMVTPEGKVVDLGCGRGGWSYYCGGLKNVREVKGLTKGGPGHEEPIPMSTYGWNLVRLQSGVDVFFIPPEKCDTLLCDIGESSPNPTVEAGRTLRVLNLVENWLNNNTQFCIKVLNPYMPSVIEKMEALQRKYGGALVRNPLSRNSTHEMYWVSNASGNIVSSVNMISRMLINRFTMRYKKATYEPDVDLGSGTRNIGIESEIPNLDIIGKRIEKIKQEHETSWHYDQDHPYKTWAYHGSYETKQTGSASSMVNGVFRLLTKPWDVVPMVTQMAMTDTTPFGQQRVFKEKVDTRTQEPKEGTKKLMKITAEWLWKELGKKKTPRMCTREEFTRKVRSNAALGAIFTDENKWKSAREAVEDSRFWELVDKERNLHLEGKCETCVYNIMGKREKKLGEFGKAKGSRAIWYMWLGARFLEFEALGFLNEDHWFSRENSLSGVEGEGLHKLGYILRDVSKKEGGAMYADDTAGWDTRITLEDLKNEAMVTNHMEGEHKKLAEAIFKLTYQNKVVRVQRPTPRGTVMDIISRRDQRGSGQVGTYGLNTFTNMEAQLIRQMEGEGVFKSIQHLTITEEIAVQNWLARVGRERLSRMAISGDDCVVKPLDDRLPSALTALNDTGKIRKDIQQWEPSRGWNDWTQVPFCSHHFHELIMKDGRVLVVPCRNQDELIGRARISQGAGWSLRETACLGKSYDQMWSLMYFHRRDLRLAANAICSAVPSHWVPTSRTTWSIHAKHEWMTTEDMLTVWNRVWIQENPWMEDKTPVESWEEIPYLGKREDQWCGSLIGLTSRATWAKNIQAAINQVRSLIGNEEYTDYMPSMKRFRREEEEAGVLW

SMILES | IC50 (Aminopeptidase N) | CC50 [1] | CC50 [2] | also measured
O=C(N/N=C/c1ccccc1C(=O)O)c1cc(-c2ccc3c4c(cccc24)CC3)[nH]n1 | 85.2 µM (active) |  |  | 
Oc1c2c(nc3c(-c4ccccc4)cnn13)CCCC2 |  | > 20 µM (active) | > 40 µM (active) | IC50 (cells): 44 µM (active)
COc1cc(/C=C2\SC(c3ccccc3)=NC2=O)cc(Cl)c1O | 20 µM (active) |  |  | IC50 (Nonstructural protein 1): 12.7 µM (active)
Cc1ccsc1C(C(=O)NC1CCCCC1)N(C(=O)c1csnn1)C1CC1 (stereo unspecified) | 87.7 µM (active) |  |  | 
Cc1oc2cc([N+](=O)[O-])c(O)c([N+](=O)[O-])c2c1C(=O)c1ccc(Br)cc1 | 77 µM (active) |  |  | EC50 (Protein RecA): 7.96 µM (active); IC50 (Genome polyprotein): 45.2 µM (active); AC50 [3]: 8.65 µM (active)
O=C(CC(=O)c1ccccc1O)c1cccc(F)c1 |  | 16.5 µM (active) | > 40 µM (active) | IC50 (cells): 17.4 µM (active)
O=C(Nc1ccccc1N1CCN(C(=O)c2ccc(Cl)cc2)CC1)c1ccc([N+](=O)[O-])o1 |  | 5.96 µM (active) | 12.8 µM (active) | EC50 [4]: 37.2 µM (active); EC50 [5]: 1.32 µM (active)
COc1ccc(CCCC(=O)NCc2ccccc2)cc1C |  | > 20 µM (active) | 9.44 µM (active) | 
O=C1c2cccc3cccc(c23)C(=O)N1CCCc1nnc(S)n1-c1ccccc1 | 17.9 µM (active) |  |  | 
CCc1ccc(OCC(=O)NNC(=O)c2cnccn2)c(Br)c1 |  | 18.8 µM (active) | > 40 µM (active) | IC50 (cells): 9.66 µM (active); IC50 [6]: > 20 µM (inactive)
CCCCN(CC)Cc1c(O)ccc2c3c(c(=O)oc12)CCC3 | 57.7 µM (active) |  |  | 
